PMC8745330, “Aromatic Sulfonamides including a Sulfonic Acid Tail: New Membrane Impermeant Carbonic Anhydrase Inhibitors for Targeting Selectively the Cancer-Associated Isoforms” (International Journal of Molecular Sciences, 2021)

What was measured:
[1] = molecular target: T1, hCA I (Homo sapiens, UniProt P00915); experiment: stopped flow CO2 hydrase assay, CA I; type: biochemical; settings: mean from 3 different assays, errors ±5–10%
T1 construct: made in house
Experimental: (§1) An Applied Photophysics stopped-flow instrument was used for assaying the CA catalyzed CO2 hydration activity. Phenol red (at a concentration of 0.2 mM) was used as an indicator, working at the absorbance maximum of 557 nm, with 20 mM HEPES (pH 7.5) as buffer, and 20 mM Na2SO4 (for maintaining constant the ionic strength), following the initial rates of the CA-catalyzed CO2 hydration reaction for a period of 10–100 s. The CO2 concentrations ranged from 1.7 to 17 mM for the determination of the kinetic parameters and inhibition constants. For each inhibitor, at least six traces of the initial 5–10% of the reaction were used for determining the initial velocity. The uncatalyzed rates were determined in the same manner and subtracted from the total observed rates. Stock solutions of inhibitor (0.1 mM) were prepared in distilled–deionized water, and dilutions up to 0.01 nM were done thereafter with the assay buffer. Inhibitor and enzyme solutions were preincubated together for 45 min at room temperature prior to assay in order to allow for the formation of the E–I complex. The inhibition constants were obtained by non-linear least-squares methods using PRISM 3 and the Cheng–Prusoff equation, as reported earlier, representing the mean from at least three different determinations. […] All CA isoforms were recombinant ones obtained in-house, as reported earlier.

[2] = molecular target: T2, hCA II (Homo sapiens, UniProt P00918); experiment: stopped flow CO2 hydrase assay, CA II; type: biochemical; settings: mean from 3 different assays, errors ±5–10%
T2 construct: made in house
Experimental: as §1

[3] = molecular target: T3, hCA IV (Homo sapiens, UniProt P22748); experiment: stopped flow CO2 hydrase assay, CA IV; type: biochemical; settings: mean from 3 different assays, errors ±5–10%
T3 construct: made in house
T3 sequence (P22748 19-312): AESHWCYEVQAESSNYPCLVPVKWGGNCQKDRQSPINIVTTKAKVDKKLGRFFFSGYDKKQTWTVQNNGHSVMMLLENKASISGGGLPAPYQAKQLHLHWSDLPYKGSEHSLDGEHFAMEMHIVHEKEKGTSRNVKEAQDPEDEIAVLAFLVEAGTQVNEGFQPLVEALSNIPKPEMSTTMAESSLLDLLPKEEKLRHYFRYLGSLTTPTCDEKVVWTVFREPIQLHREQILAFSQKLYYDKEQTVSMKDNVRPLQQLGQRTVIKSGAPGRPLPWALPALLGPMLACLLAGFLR
Experimental: as §1

[4] = molecular target: T4, hCA IX (Homo sapiens, UniProt Q16790); experiment: stopped flow CO2 hydrase assay, CA IX; type: biochemical; settings: for Selectivity index (SI) CA I/CA IX / Selectivity index (SI) CA II/CA IX: ratio between KI values; for Ki: stopped flow CO2 hydrase assay, mean from 3 different assays, errors ±5–10%
T4 construct: made in house
Experimental: as §1

[5] = molecular target: T5, hCA XII (Homo sapiens, UniProt O43570); experiment: stopped flow CO2 hydrase assay, CA XII; type: biochemical; settings: for Selectivity index (SI) CA I/CA XII / Selectivity index (SI) CA II/CA XII: ratio between KI values; for Ki: stopped flow CO2 hydrase assay, mean from 3 different assays, errors ±5–10%
T5 construct: made in house
T5 sequence (O43570 25-354): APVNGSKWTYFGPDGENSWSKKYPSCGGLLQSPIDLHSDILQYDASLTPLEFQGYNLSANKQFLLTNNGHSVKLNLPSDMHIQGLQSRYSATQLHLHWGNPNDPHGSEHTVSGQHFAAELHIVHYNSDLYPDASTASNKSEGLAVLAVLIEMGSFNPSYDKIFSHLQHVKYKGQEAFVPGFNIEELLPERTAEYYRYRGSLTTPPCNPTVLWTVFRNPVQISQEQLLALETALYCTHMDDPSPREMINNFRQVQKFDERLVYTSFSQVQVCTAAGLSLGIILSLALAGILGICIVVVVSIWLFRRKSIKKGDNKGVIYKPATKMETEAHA
Experimental: as §1

T1 sequence (P00915 whole entry): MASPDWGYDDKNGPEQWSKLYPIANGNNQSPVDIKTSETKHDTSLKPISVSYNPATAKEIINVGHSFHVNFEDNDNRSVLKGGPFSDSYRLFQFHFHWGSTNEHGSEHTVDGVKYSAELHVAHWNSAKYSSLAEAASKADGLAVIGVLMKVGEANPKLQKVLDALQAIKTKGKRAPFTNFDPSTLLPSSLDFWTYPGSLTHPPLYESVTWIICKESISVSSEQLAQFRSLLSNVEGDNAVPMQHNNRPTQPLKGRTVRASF

Row | Ki [1] | Ki [2] | Ki [3] | Selectivity index (SI) CA I/CA IX [4] | Selectivity index (SI) CA II/CA IX [4] | Ki [4] | Selectivity index (SI) CA I/CA XII [5] | Selectivity index (SI) CA II/CA XII [5] | Ki [5] | melting point | Structure (SMILES)
1 | 82.7 nM | 0.9 nM | 38.3 nM | 1.8 | 0.02 | 44.4 nM | 1.7 | 0.02 | 47.7 nM | 290 to 293 °C | NS(=O)(=O)c1ccc(OCc2cn(CCCS(=O)(=O)[O-])nn2)cc1.[Na+] [Compound 31, Sodium 3-(4-((4-sulfamoylphenoxy)methyl)-1H-1,2,3-triazol-1-yl)propane-1-sulfonate]
2 | 460 nM | 4.2 nM | 43.1 nM | 1.0 | 0.01 | 459 nM | 1.1 | 0.01 | 433 nM | > 300 °C | NS(=O)(=O)c1ccc(NCc2cn(CCCS(=O)(=O)[O-])nn2)cc1.[Na+] [Compound 32, Sodium 3-(4-(((4-sulfamoylphenyl)amino)methyl)-1H-1,2,3-triazol-1-yl)propane-1-sulfonate]
3 | 807 nM | 139 nM | 50.2 nM | 11 | 1.9 | 71.8 nM | 49 | 8.4 | 16.4 nM | 295 to 297 °C | NS(=O)(=O)c1ccc(CNC(=O)NCc2cn(CCCS(=O)(=O)[O-])nn2)cc1.[Na+] [Compound 35, Sodium 3-(4-((3-(4-sulfamoylbenzyl)ureido)methyl)-1H-1,2,3-triazol-1-yl)propane-1-sulfonate]
4 | 76.8 nM | 43.1 nM | 870 nM | 0.3 | 0.15 | 282 nM | 8.8 | 4.9 | 8.7 nM | 217 to 219 °C | NS(=O)(=O)c1ccc(CCNC(=O)NCc2cn(CCCS(=O)(=O)[O-])nn2)cc1.[Na+] [Compound 36, Sodium 3-(4-((3-(4-sulfamoylphenethyl)ureido)methyl)-1H-1,2,3-triazol-1-yl)propane-1-sulfonate]
5 | 79.9 nM | 21.4 nM | 78.1 nM | – | 0.42 | 51.2 nM | 8.5 | 2.2 | 9.4 nM | 230 to 232 °C | NS(=O)(=O)c1ccc(NC(=S)NCc2cn(CCCS(=O)(=O)[O-])nn2)cc1.[Na+] [Compound 37, Sodium 3-(4-((3-(4-sulfamoylphenyl)thioureido)methyl)-1H-1,2,3-triazol-1-yl)propane-1-sulfonate]
6 | 9160 nM | 6.6 nM | 322 nM | 167 | 0.12 | 54.8 nM | 194 | 0.14 | 47.1 nM | > 300 °C | CCC(=O)Nc1cc(S(N)(=O)=O)ccc1OCc1cn(CCCS(=O)(=O)[O-])nn1.[Na+] [Compound 40, Sodium 3-(4-((2-propionamido-4-sulfamoylphenoxy)methyl)-1H-1,2,3-triazol-1-yl)propane-1-sulfonate]
